Reference: patent US20200352931A1, “OXALAMIDES AS MODULATORS OF INDOLEAMINE 2,3-DIOXYGENASE” (PHENEX DISCOVERY VERWALTUNGS-GMBH, priority 2017, published 2020)

Target: T1, Indoleamine 2,3-Dioxygenase (IDO1) in SKOV-3 cells (Homo sapiens, UniProt P14902)
T1 construct: endogenous in cells; host or cells: SKOV-3 (ATCC HTB-77), stimulated with 50 ng/ml interferon gamma
Assay: SKOV-3 cellular indoleamine 2,3-dioxygenase assay
Conditions: 50 ng/ml Interferon gamma, 100 μM L-Tryptophan, 24 hours, N-Formylkynurenin fluorescence, read-out: cell based activity (IC50)
Protocol: SKOV-3 Cellular Indoleamine 2,3-Dioxygenase Assay
SKOV-3 cells were obtained from the American Type Culture Collection (ATCC® HTB-77™) and maintained in McCoy's medium (Pan Biotech) supplemented with 10% fetal bovine serum and 1% Penicilin/Streptomycin. Cells were kept at 37° C. in a humidified incubator with 5% CO2. For assay preparation, cells were seeded at a density of 2*10^5/m into black clear bottom 96 well plates in 100 μl medium/well supplemented with 50 ng/ml Interferon gamma (eBioscience, Thermo Fisher Scientific). After cells fully adhered to the plate, dilution series of compounds were added in medium containing additional L-Tryptophan to a final L-Tryptophan concentration of 100 μM. The cells were incubated for 24 hours. Detection of produced N-Formylkynurenin was performed by addition of 3-Methylpiperidine to a final concentration of 200 mM. The plates were sealed and heated to 65° C. for 20 minutes in a water bath. After cooling the fluorescence of each well was recorded with a Victor™ X4 (PerkinElmer) plate reader at an emission wavelength of 535 nm and excitation at 405 nm (Tomek et al.; Anal Bioanal Chem (2013) 405:2515-2524., Tomek et al.; Biochim Biophys Acta. 2015 September; 1850(9):1772-80).

T1 sequence (P14902 whole entry): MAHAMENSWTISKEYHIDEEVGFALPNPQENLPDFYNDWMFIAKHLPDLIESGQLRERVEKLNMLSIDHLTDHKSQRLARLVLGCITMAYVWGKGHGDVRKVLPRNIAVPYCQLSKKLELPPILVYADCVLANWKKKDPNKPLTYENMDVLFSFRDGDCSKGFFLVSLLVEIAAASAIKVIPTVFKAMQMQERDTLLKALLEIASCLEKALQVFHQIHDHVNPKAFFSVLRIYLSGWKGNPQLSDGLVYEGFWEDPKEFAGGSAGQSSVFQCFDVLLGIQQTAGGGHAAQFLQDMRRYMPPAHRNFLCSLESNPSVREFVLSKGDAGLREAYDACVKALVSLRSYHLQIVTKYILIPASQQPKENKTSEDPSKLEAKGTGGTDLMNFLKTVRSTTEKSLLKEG

Compound	IC50 [µM]
NC(=O)c1ccc(NC(=O)C(=O)N2CCC(c3ccnc4ccc(F)cc34)CC2)cc1 [5/9]	> 1
O=C(Nc1ccc(OC(F)(F)F)cc1)C(=O)N1CCC(c2ccnc3ccc(F)cc23)CC1 [1/37]	< 0.1
N#Cc1ccc(NC(=O)C(=O)N2CCC(c3ccnc4ccc(F)cc34)CC2)cc1 [1/14]	< 0.1
O=C(Nc1ccc(C(F)(F)F)cc1F)C(=O)N1CCC(c2ccnc3ccc(F)cc23)CC1 [1/17]	< 0.1
O=C(Nc1ccc(Br)cc1)C(=O)N1CCC(c2ccnc3ccc(F)cc23)CC1 [1/27]	< 0.1
O=C(Nc1ccc(Cl)cc1)C(=O)N1CCC(c2ccnc3ccc(Cl)cc23)CC1 [1/47]	< 0.1
COc1cc(C2CCN(C(=O)C(=O)Nc3ccc(Cl)cn3)CC2)c2ccccc2n1 [1/34]	> 1
O=C(Nc1ccc(Cl)cn1)C(=O)N1CCC(c2cccc(Cl)c2Cl)CC1 [2/5]	0.1 to 1
O=C(Nc1ccc(-c2cncnc2)cn1)C(=O)N1CCC(c2ccnc3ccc(F)cc23)CC1 [5/5]	> 1
O=C(Nc1ccc(Cl)cc1)C(=O)N1CCC(c2ccnc3c(F)cc(F)cc23)CC1 [1/30]	< 0.1
O=C(Nc1ccc(Cl)cc1)C(=O)N1CCC(c2ccnc3ccc(F)cc23)C(F)(F)C1 (stereo not shown) [1/46]	< 0.1
O=C(Nc1ccc(C(F)(F)F)c(F)c1)C(=O)N1CCC(c2ccnc3ccc(F)cc23)CC1 [1/21]	0.1 to 1
O=C(Nc1ccc(Cl)cc1)C(=O)N1CCC(c2ccnc3cc(Cl)ccc23)CC1 [1/48]	< 0.1
Cc1nc(NC(=O)C(=O)N2CCC(c3ccnc4ccc(F)cc34)CC2)ccc1-c1cnn(C)c1 [5/6]	> 1
O=C(Nc1ccc(Cl)cc1F)C(=O)N1CCC(c2ccnc3ccnn23)CC1 [1/5]	0.1 to 1
O=C(Nc1ccc(Cl)cn1)C(=O)N1CCC(c2cc(OC(F)F)nc3ccccc23)CC1 [1/33]	> 1
O=C(Nc1ccc(Cl)cn1)C(=O)N1CCC(c2ccnc(C(F)(F)F)c2Cl)CC1 [2/4]	0.1 to 1
O=C(Nc1ccc(Cl)cc1F)C(=O)N1CCC=C(c2ccnc3ccc(F)cc23)CC1 [1/12]	< 0.1
O=C(Nc1ccc(Cl)cn1)C(=O)N1CCCC(c2ccnc3ccccc23)CC1 (stereo not shown) [1/8]	< 0.1

Compound	IC50 [µM]
O=C(Nc1ccc(Cl)cc1F)C(=O)N1CCC(c2ccnc3ccc(F)cc23)CC1 [1/6]	< 0.1
O=C(Nc1ccc(Cl)cc1)C(=O)N1CCC(c2ccnc3cc(F)ccc23)CC1 [1/31]	< 0.1
O=C(Nc1ccc(C(F)(F)F)cn1)C(=O)N1CCC(c2ccncc2-c2ccccc2)CC1 [6/2]	> 1
O=C(N[C@@H]1CCc2ccccc2C1)C(=O)N1CCC(c2ccnc3ccc(F)cc23)CC1 [5/1]	> 1
O=C(Nc1ccc(OCC(F)(F)F)cc1)C(=O)N1CCC(c2ccnc3ccc(F)cc23)CC1 [1/41]	0.1 to 1
O=C(Nc1ccc(Cl)cc1F)C(=O)N1CCC(c2ccnc3ccccc23)CC1 [1/2]	< 0.1
O=C(Nc1ccc(OC(F)F)cc1F)C(=O)N1CCC(c2ccnc3ccc(F)cc23)CC1 [1/40]	< 0.1
O=C(Nc1ccc(OC(F)F)cc1)C(=O)N1CCC(c2ccnc3ccc(F)cc23)CC1 [1/39]	< 0.1
O=C(NCc1ccc(Cl)cc1)C(=O)N1CCC(c2ccnc3ccc(F)cc23)CC1 [2/1]	> 1
CS(=O)(=O)c1ccc(NC(=O)C(=O)N2CCC(c3ccnc4ccc(F)cc34)CC2)cc1 [5/10]	> 1
CC(C)(O)c1ccc2nccc(C3CCN(C(=O)C(=O)Nc4ccc(Cl)cc4)CC3)c2c1 [1/42]	> 1
O=C(NC1Cc2ccccc2C1)C(=O)N1CCC(c2ccnc3ccc(F)cc23)CC1 [5/7]	0.1 to 1
O=C(Nc1ccc(C(F)(F)F)cn1)C(=O)N1CCC(c2ccnc3ccc(F)cc23)CC1 [5/2]	0.1 to 1
O=C(Nc1ccc(C(F)(F)F)cn1)C(=O)N1CCC(c2ccccc2Cc2ccccc2)CC1 [6/1]	> 1
O=C(NCc1ccc(Cl)o1)C(=O)N1CCC(c2ccnc3ccc(F)cc23)CC1 [2/2]	> 1
O=C(Nc1ccc(C(F)F)cc1)C(=O)N1CCC(c2ccnc3ccc(F)cc23)CC1 [1/22]	< 0.1
O=C(Nc1ccc(CC(F)(F)F)cc1)C(=O)N1CCC(c2ccnc3ccc(F)cc23)CC1 [1/36]	0.1 to 1
O=C(Nc1ccc(C(F)(F)F)c(Cl)c1)C(=O)N1CCC(c2ccnc3ccc(F)cc23)CC1 [1/20]	> 1

Now from value to molecule:

IC50 [µM]	Compound
< 0.1	O=C(Nc1ccc(C(F)(F)F)cc1)C(=O)N1CCC(c2ccnc3ccc(F)cc23)CC1 [7/1]
> 1	O=C(Nc1ccc(Cl)cc1)C(=O)N1CC[C@@H](c2ccnc3ccc(F)cc23)[C@@H](O)C1 (single isomer, unassigned) [10/1b]
> 1	CN1C(=O)c2ccccc2C12CCN(C(=O)C(=O)Nc1ccc(Cl)cn1)CC2 [100/7]
0.1 to 1	O=C(Nc1ccc(Cl)cn1)C(=O)N1CCC2(CC1)OCc1cc(Cl)ccc12 [100/8]
> 1	O=C(N[C@H]1CCc2ccccc21)C(=O)N1CCC(c2ccnc3ccc(F)cc23)CC1 [8/2]
> 1	O=C(NC1CCC2(CC1)CC2)C(=O)N1CCC(c2ccnc3ccc(F)cc23)CC1 [8/5]
< 0.1	O=C(Nc1ccc(Cl)cn1)C(=O)N1CCC(c2ccnc3ccccc23)CC1 [Example 3, N-(5-Chloropyridin-2-yl)-2-oxo-2-(4-(quinolin-4-yl)piperidin-1-yl)acetamide]
0.1 to 1	O=C(N[C@H]1CCc2ccccc2C1)C(=O)N1CCC(c2ccnc3ccc(F)cc23)CC1 [Example 5, (S)-2-(4-(6-Fluoroquinolin-4-yl)piperidin-1-yl)-2-oxo-N-(1,2,3,4-tetrahydro-naphthalen-2-yl)acetamide]
< 0.1	O=C(Nc1ccc(Cl)cn1)C(=O)N1CCC2(CC1)OCc1cc(C(F)(F)F)ccc12 [100/11]
< 0.1	O=C(Nc1ccc(Cl)cc1)C(=O)N1CC[C@@H](c2ccnc3ccc(F)cc23)[C@H](O)C1 (single isomer, unassigned) [Example 10b, trans-N-(4-Chlorophenyl)-2-(4-(6-fluoroquinolin-4-yl)-3-hydroxypiperidin-1-yl)-2-oxoacetamide]
0.1 to 1	O=C(Nc1ccc(Cl)cc1)C(=O)N1CCCC2(CC1)COc1cc(C(F)(F)F)ccc12 (stereo not shown) [Example 102, N-(4-Chlorophenyl)-2-oxo-2-(6′-(trifluoromethyl)-2′H-spiro[azepane-4,3′-benzofuran]-1-yl)acetamide]
0.1 to 1	C[C@H]1CC[C@H](NC(=O)C(=O)N2CCC(c3ccnc4ccccc34)CC2)CC1 [Example 4, N-((1r,4r)-4-Methylcyclohexyl)-2-oxo-2-(4-(quinolin-4-yl)piperidin-1-yl)acetamide]
> 1	O=C(NC1CCC(F)(F)CC1)C(=O)N1CCC(c2ccnc3ccc(F)cc23)CC1 [8/3]
0.1 to 1	O=C(Nc1ccc(Cl)cn1)C(=O)N1CCC2(CC1)COc1ccccc12 [100/2]
< 0.1	O=C(Nc1csc(Cl)c1)C(=O)N1CCC(c2ccnc3ccc(F)cc23)CC1 [7/2]
< 0.1	O=C(Nc1ccc(Cl)cc1)C(=O)N1CCC2(CC1)COc1cc(C(F)F)ccc12 [Example 101, N-(4-Chlorophenyl)-2-(6-(difluoromethyl)-2H-spiro[benzofuran-3,4′-piperidin]-1′-yl)-2-oxoacetamide]
0.1 to 1	O=C(Nc1ccc(Cl)cn1)C(=O)N1CCC(c2cccc3ccccc23)CC1 [Example 6, N-(5-Chloropyridin-2-yl)-2-(4-(naphthalen-1-yl)piperidin-1-yl)-2-oxoacetamide]
< 0.1	O=C(Nc1ccc(Cl)cc1)C(=O)N1CCC2(CC1)OCc1cc(Cl)ccc12 [100/9]
0.1 to 1	N#Cc1ccc2c(c1)COC21CCN(C(=O)C(=O)Nc2ccc(Cl)cc2)CC1 [100/14]
> 1	CC(NC(=O)C(=O)N1CCC(c2ccnc3ccc(F)cc23)CC1)c1ccccc1 (stereo not shown) [Example 8, 2-(4-(6-Fluoroquinolin-4-yl)piperidin-1-yl)-2-oxo-N-(1-phenylethyl)acetamide]
> 1	O=C(Nc1ccc(Cl)cn1)C(=O)N1CCC2(CC1)OCc1ccncc12 [100/5]
0.1 to 1	O=C(Nc1ccc(Cl)cn1)C(=O)N1CCC2(CC1)OCc1ccccc12 [100/1]
< 0.1	O=C(Nc1ccc(Cl)cn1)C(=O)N1CCC(c2ccnc3ccc(F)cc23)CC1 [Example 2, N-(5-Chloropyridin-2-yl)-2-(4-(6-fluoroquinolin-4-yl)piperidin-1-yl)-2-oxoacetamide]
> 1	O=C(NC1Cc2ccc(F)cc21)C(=O)N1CCC2(CC1)COc1cc(C(F)(F)F)ccc12 (stereo not shown) [Example 103, N-(4-Fluorobicyclo[4.2.0]octa-1(6),2,4-trien-7-yl)-2-oxo-2-(6-(trifluoromethyl)-2H-spiro[benzofuran-3,4′-piperidin]-1′-yl)acetamide]
> 1	CN1C(=O)C2(CCN(C(=O)C(=O)Nc3ccc(Cl)cn3)CC2)c2ccccc21 [100/4]
> 1	O=C(NC1CCC(C(F)(F)F)CC1)C(=O)N1CCC(c2ccnc3ccc(F)cc23)CC1 (stereo not shown) [8/6]
< 0.1	O=C(Nc1ccc(Cl)cc1)C(=O)N1CCC2(CC1)OCc1cc(C(F)(F)F)c(F)cc12 [100/13]
